What was measured:
[1] = molecular target: T1, Synaptic vesicular amine transporter (Rattus norvegicus, UniProt Q01827); assay: Displacement of [3H]DTBZ from VMAT2 in rat whole brain by liquid scintillation spectrometry
[2] = molecular target: T1, Synaptic vesicular amine transporter; assay: Inhibition of VMAT2-mediated [3H]DA uptake in rat brain synaptic vesicles by liquid scintillation spectrometry; assay type: tissue-based
[3] = molecular target: Synaptic vesicular amine transporter (Rattus norvegicus) (UniProt Q01827); assay: Displacement of [3H]DTBZ from VMAT2 in rat whole brain relative to quinlobelane
Sequence of Synaptic vesicular amine transporter (Rattus norvegicus) (Q01827 whole entry): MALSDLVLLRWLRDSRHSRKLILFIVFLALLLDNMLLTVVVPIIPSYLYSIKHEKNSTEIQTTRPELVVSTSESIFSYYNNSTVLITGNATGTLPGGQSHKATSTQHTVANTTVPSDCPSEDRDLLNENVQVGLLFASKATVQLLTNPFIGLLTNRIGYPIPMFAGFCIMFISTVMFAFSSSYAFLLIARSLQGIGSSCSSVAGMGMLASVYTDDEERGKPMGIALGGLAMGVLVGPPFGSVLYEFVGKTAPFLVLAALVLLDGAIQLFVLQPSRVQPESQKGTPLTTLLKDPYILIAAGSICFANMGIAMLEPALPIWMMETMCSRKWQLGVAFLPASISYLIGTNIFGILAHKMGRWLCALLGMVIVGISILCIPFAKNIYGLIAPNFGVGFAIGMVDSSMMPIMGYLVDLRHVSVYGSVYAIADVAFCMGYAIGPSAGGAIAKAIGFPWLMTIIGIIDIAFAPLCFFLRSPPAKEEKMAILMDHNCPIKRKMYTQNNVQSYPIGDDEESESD

[4] = molecular target: Synaptic vesicular amine transporter (Rattus norvegicus) (UniProt Q01827); assay: Ratio of Ki for displacement of [3H]DTBZ from VMAT2 in rat whole brain to Ki for inhibition of VMAT2-mediated [3H]DA uptake in rat brain synaptic vesicles; assay type: tissue-based

T1 sequence (Q01827 whole entry): as above

Ki [1] [nM]	Ki [2] [nM]	Ratio Ki [3]	Ratio Ki [4]	Structure (SMILES)
627	240	4	3	OC[C@H](O)CN1[C@@H](CCc2ccc3ccccc3n2)CCC[C@H]1CCc1ccc2ccccc2n1
178	42			c1ccc2c(CC[C@H]3CCC[C@@H](CCc4ccnc5ccccc45)N3)ccnc2c1
293	57	9	3	c1ccc2nc(CC[C@H]3CCC[C@@H](CCc4ccc5ccccc5n4)N3)ccc2c1

Structure (SMILES)	Ki [1] [nM]	Ki [2] [nM]	Ratio Ki [3]	Ratio Ki [4]
c1cnc2ccc(CC[C@H]3CCC[C@@H](CCc4ccc5ncccc5c4)N3)cc2c1	647	42	4	3

From ChEMBL document CHEMBL3588780, “Quinolyl analogues of norlobelane: novel potent inhibitors of [(3)H]dihydrotetrabenazine binding and [(3)H]dopamine uptake at the vesicular monoamine transporter-2” (Bioorg Med Chem Lett, 2015)
